For 14 compounds, IC50 results are on record in patent US10214535B2, “Hydroxmethyl piperidine orexin receptor antagonists” (MERCK SHARP & DOHME CORP., priority 2014, dated 2019).

Like-named read-outs stand apart in the source and are kept apart here. A value given as a limit tells only on which side of the number the result lay.

In one experiment the target is human orexin-2 receptor (Homo sapiens (Human), UniProt O43614). In words: hOX2R FLIPR Ca2+ flux assay. The class given is cell-based. The settings on record: CHO cells expressing the human orexin-2 receptor; agonist 70 pM Ala-6,12 orexin-A. As for the experimental part: In a typical experiment the OX1 and OX2 receptor antagonistic activity of the compounds of the present invention was determined in accordance with the following experimental method. For intracellular calcium measurements, Chinese hamster ovary (CHO) cells expressing the rat orexin-1 receptor or the human orexin-2 receptor, are grown in Iscove's modified DMEM containing 2 mM L-glutamine, […], 1% hypoxanthine-thymidine supplement, 100 U/ml penicillin, 100 μg/ml streptomycin and 10% heat-inactivated fetal calf serum (FCS). The cells are seeded at 20,000 cells/well into Becton-Dickinson black 384-well clear bottom sterile plates coated with poly-D-lysine. All reagents were from GIBCO-Invitrogen Corp. The seeded plates are incubated overnight at 37° C. and 5% CO2. Ala-6,12 human orexin-A as the agonist is prepared as a 1 mM stock solution in 1% bovine serum albumin (BSA) and diluted in assay buffer (HBSS containing 20 mM HEPES, 0.1% BSA and 2.5 mM probenecid, pH7.4) for use in the assay at a final concentration of 70 pM. Test compounds are prepared as 10 mM stock solution in DMSO, then diluted in 384-well plates, first in DMSO, then assay buffer. On the day of the assay, cells are washed 3 times with 100 μl assay buffer and then incubated for 60 min (37° C., 5% CO2) in 60 μl assay buffer containing 1 μM Fluo-4AM ester, 0.02% pluronic acid, and 1% BSA. The dye loading solution is then aspirated and cells are washed 3 times with 100 μl assay buffer. 30 μl of that same buffer is left in each well. Within the Fluorescent Imaging Plate Reader (FLIPR, Molecular Devices), test compounds are added to the plate in a volume of 25 μl, incubated for 5 min and finally 25 μl of agonist is added. Fluorescence is measured for each well at 1 second intervals for 5 minutes and the height of each fluorescence peak is compared to the height of the fluorescence peak induced by 70 pM Ala-6,12 orexin-A with buffer in place of antagonist. For each antagonist, IC50 value (the concentration of compound needed to inhibit 50% of the agonist response) is determined. Alternatively, compound potency can be assessed by a radioligand binding assay (described in Bergman et. al. Bioorg. Med. Chem. Lett. 2008, 18, 1425-1430) in which the inhibition constant (Ki) is determined in membranes prepared from CHO cells expressing either the OX1 or OX2 receptor. The intrinsic orexin receptor antagonist activity of a compound which may be used in the present invention may be determined by these assays.
human orexin-2 receptor, sequence (O43614 whole entry): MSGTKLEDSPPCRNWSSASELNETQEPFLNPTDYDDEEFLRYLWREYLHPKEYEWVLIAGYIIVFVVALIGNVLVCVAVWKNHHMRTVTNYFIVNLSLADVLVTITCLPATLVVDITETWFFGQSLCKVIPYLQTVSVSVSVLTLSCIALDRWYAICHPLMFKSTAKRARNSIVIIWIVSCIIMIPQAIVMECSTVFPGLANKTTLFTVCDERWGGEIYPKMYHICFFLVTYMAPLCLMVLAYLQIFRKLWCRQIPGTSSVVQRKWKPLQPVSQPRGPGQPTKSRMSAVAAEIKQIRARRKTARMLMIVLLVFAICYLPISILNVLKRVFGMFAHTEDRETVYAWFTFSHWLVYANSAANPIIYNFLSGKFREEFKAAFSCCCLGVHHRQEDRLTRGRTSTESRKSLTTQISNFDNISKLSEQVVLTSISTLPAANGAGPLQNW

The next experiment concerns the target hOX1R (Homo sapiens, UniProt O43613). The experiment is described as follows: hOX1R FLIPR Ca2+ flux assay. The class given is cell-based.
Setting [1] is: CHO cells expressing orexin-1 receptor, agonist 70 pM Ala-6,12 orexin-A, read-out: hOX1R FLIPR IC50.

Consider `COC(=O)c1c(OC)cccc1O[C@@H]1CC[C@@H](CO)N(C(=O)c2ccccc2-n2nccn2)C1` [Example 1, Methyl 2-{[(3R,6S)-6-(hydroxymethyl)-1-{[2-(2H-1,2,3-triazol-2-yl)phenyl]carbonyl}-piperidin-3-yl]oxy}-6-methoxybenzoate], for which the figures for the IC50 at human orexin-2 receptor and at hOX1R (setting [1]) were 198 nM and greater than 10000 nM, respectively.

Turning to `CC1(C)OC(=O)c2c1ccnc2O[C@@H]1CC[C@@H](CO)N(C(=O)c2ccccc2-n2nccn2)C1` [Example 2, 4-{[(3R,6S)-6-(Hydroxymethyl)-1-{[2-(2H-1,2,3-triazol-2-yl)phenyl]carbonyl}piperidin-3-yl]oxy}-1,1-dimethylfuro[3,4-c]pyridin-3(1H)-one], the half-maximal inhibitory concentration (IC50) on human orexin-2 receptor is 21 nM; at hOX1R (setting [1]), greater than 10000 nM.

Regarding `N#Cc1ccnc(O[C@@H]2CC[C@@H](CO)N(C(=O)c3ccccc3-n3nccn3)C2)c1` [Example 3, 2-{[(3R,6S)-6-(hydroxymethyl)-1-{[2-(2H-1,2,3-triazol-2-yl)phenyl]carbonyl}piperidin-3-yl]oxy}pyridine-4-carbonitrile], the IC50 was 17 nM on human orexin-2 receptor and greater than 10000 nM at hOX1R (setting [1]).

For `COC(=O)c1c(C#N)cccc1O[C@@H]1CC[C@@H](CO)N(C(=O)c2ccccc2-n2nccn2)C1` [Example 4, methyl 2-cyano-6-{[(3R,6S)-6-(hydroxymethyl)-1-{[2-(2H-1,2,3-triazol-2-yl)phenyl]carbonyl}piperidin-3-yl]oxy} benzoate], the results for the IC50 on human orexin-2 receptor and at hOX1R (setting [1]) were 49 nM and greater than 10000 nM, respectively.

As to `Cc1ccnc(O[C@@H]2CC[C@@H](CO)N(C(=O)c3ccccc3-n3nccn3)C2)c1` [Example 5, [(2S,5R)-5-[(4-methylpyridin-2-yl)oxy]-1-{[2-(2H-1,2,3-triazol-2-yl)phenyl]carbonyl}piperidin-2-yl]methanol], the IC50 was 18 nM on human orexin-2 receptor and 1710 nM on hOX1R (setting [1]).

For the compound `O=C(c1ccccc1-n1nccn1)N1C[C@H](Oc2cc(OCC(F)F)ccn2)CC[C@H]1CO` [Example 6, [(2S,5R)-5-{[4-(2,2-difluoroethoxy)pyridin-2-yl]oxy}-1-{[2-(2H-1,2,3-triazol-2-yl)phenyl]carbonyl}piperidin-2-yl]methanol], the IC50 at human orexin-2 receptor was 60 nM; against hOX1R it was greater than 10000 nM.

As for `Cc1c(C#N)ccnc1O[C@@H]1CC[C@@H](CO)N(C(=O)c2ccccc2-n2nccn2)C1` [Example 7, 2-{[(3R,6S)-6-(hydroxymethyl)-1-{[2-(2H-1,2,3-triazol-2-yl)phenyl]carbonyl}piperidin-3-yl]oxy}-3-methylpyridine-4-carbonitrile], the IC50 on human orexin-2 receptor stood at 8 nM; at hOX1R (setting [1]) it was 1780 nM.

On to `CCOc1ccccc1C(=O)N1C[C@H](Oc2nccc(C#N)c2OC)CC[C@H]1CO` [Example 10, 2-{[(3R,6S)-1-[(2-Ethoxyphenyl)carbonyl]-6-(hydroxymethyl)piperidin-3-yl]oxy}-3-methoxypyridine-4-carbonitrile], for which the IC50 was 12 nM on human orexin-2 receptor and greater than 10000 nM at hOX1R (setting [1]).

Regarding `COc1c(C#N)ccnc1O[C@@H]1CC[C@@H](CO)N(C(=O)c2cccnc2OCC(F)(F)F)C1` [Example 11, 2-{[(3R,6S)-6-(hydroxymethyl)-1-{[2-(2,2,2-trifluoroethoxy)pyridin-3-yl]carbonyl}piperidin-3-yl]oxy}-3-methoxypyridine-4-carbonitrile], the values for the IC50 at human orexin-2 receptor and on hOX1R (setting [1]) were 9 nM and 4080 nM, respectively.

In the case of `COc1c(C#N)ccnc1O[C@@H]1CC[C@@H](CO)N(C(=O)c2cccnc2OC(C)C)C1` [Example 12, 2-{[(3R,6S)-6-(hydroxymethyl)-1-{[2-(1-methylethoxy)pyridin-3-yl]carbonyl}piperidin-3-yl]oxy}-3-methoxypyridine-4-carbonitrile], the IC50 was 27 nM on human orexin-2 receptor and greater than 10000 nM on hOX1R (setting [1]).

Turning to `COc1c(C#N)ccnc1O[C@@H]1CC[C@@H](CO)N(C(=O)c2ccccc2OC(F)F)C1` [Example 13, 2-{[(3R,6S)-1-{[2-(difluoromethoxy)phenyl]carbonyl}-6-(hydroxymethyl)piperidin-3-yl]oxy}-3-methoxypyridine-4-carbonitrile], the figures for the IC50 on human orexin-2 receptor and on hOX1R (setting [1]) were 39 nM and greater than 10000 nM, respectively.

In the case of `COc1c(C#N)ccnc1O[C@@H]1CC[C@@H](CO)N(C(=O)c2ccccc2OC(F)(F)F)C1` [Example 14, 2-{[(3R,6S)-(hydroxymethyl)-1-{[2-(trifluoromethoxy)phenyl]carbonyl}piperidin-3-yl]oxy}-3-methoxypyridine-4-carbonitrile], the IC50 on human orexin-2 receptor was 14 nM; on hOX1R (setting [1]), greater than 10000 nM.

`CC(C)(O)[C@@H]1CC[C@@H](Oc2cc(C#N)ccn2)CN1C(=O)c1ccccc1-n1nccn1` [Example 15, 2-{[(3R,6S)-6-(1-Hydroxy-1-methylethyl)-1-{[2-(2H-1,2,3-triazol-2-yl)phenyl]carbonyl}-piperidin-3-yl]oxy}pyridine-4-carbonitrile]: the IC50 at human orexin-2 receptor is 31 nM; at hOX1R (setting [1]), greater than 10000 nM.

As for `Cc1c(C#N)ccnc1O[C@@H]1CC[C@@H](C(C)(C)O)N(C(=O)c2ccccc2-n2nccn2)C1` [Example 16, 2-{[(3R,6S)-6-(1-hydrox-1-methylethyl)-1-{[2-(2H-1,2,3-triazol-2-yl)phenyl]carbonyl}piperidin-3-yl]oxy}-3-methylpyridine-4-carbonitrile], the IC50 came out at 27 nM at human orexin-2 receptor and 1330 nM on hOX1R (setting [1]).
